These results are taken from patent US12661338B2, “Heterocyclic compounds as modulators of beta-catenin / TCF4 interaction” (AGENCY FOR SCIENCE, TECHNOLOGY AND RESEARCH, priority 2019, dated 2026).

Like-named read-outs stand apart in the source and are kept apart here.

Series [1] has as its target T1, β-cat-TCF4 interaction (Homo sapiens, UniProt P35222, DEL45-45).
T1 construct: endogenous in cells; host or cells: HCT116
Briefly: Co-immunoprecipitation of β-cat and TCF4 in HCT116 cells. It counts as cell-based. The following applies: 18 hr. As for the experimental part: HCT116 cells were treated for 18 hr with compounds at the indicated concentrations. Cells were lysed on ice in lysis buffer containing 20 mM HEPES, pH 7.5, 137 mM NaCl, 1.5 mM MgCl2, 1 mM EGTA, 1 mM dithiothreitol (DTT), 1% Triton X-100, 10% glycerol, cOmplete protease inhibitor cocktail (Roche cat. #11697498001), and 1 mM Na3VO4. Each sample of cleared protein lysate was incubated overnight at 4° C. with 4 μg anti-β-cat antibody (Sigma cat. #C7207) followed by 1 hr incubation with a 50 μL slurry of Dynabeads Protein G (Invitrogen cat. #10004D) at 4° C. The beads were then washed three times with lysis buffer at 4° C., and the bound protein was eluted by heating the beads with 30 μL (per sample) of SDS sample buffer at 95° C. for 7 min. protein was resolved by SDS-PAGE and blotted onto PVDF membrane (Millipore cat. #IPVH00010). Primary antibodies were incubated overnight at 4° C. and the blots were detected with either IRDye 800CW goat anti-rabbit antibody (LI-COR cat. #926-32211) or IRDye 680RD goat anti-mouse antibody (LI-COR cat. #926-68070) at 1:5000 dilution. Signals were visualized with the LI-COR Odyssey CLx imaging system and bands were quantified using LI-COR Image Studio data analysis software. […]

Series [2] relates to STF3A cells. Briefly: Viability (toxicity) of STF3A reporter cells, CCK-8. It counts as cell-based. The following applies: Table 3; STF3A reporter cell line. As for the experimental part:
(§1) The Wnt STF3A reporter cells were seeded as 20,000 cells in 100 μL culture medium per well in 96-well plates (Corning cat. #3903, Falcon cat. #353072). The next day, 5-fold dilutions of the compounds in DMSO were added to the cells at a final concentration of 1% DMSO. After 24 hr incubation, the viability of the cells was determined with cell counting kit-8 (CCK-8, Dojindo cat. #CK04) cell viability reagent according to the manufacturer's protocol while the TOPFlash reporter activity was determined with Steady-Glo luciferase reagent.
(§2) The average signal from DMSO treated wells was calculated for each plate, and the signal from each treatment well was normalized against the average DMSO signal from the respective plate. The normalized values were plotted against the concentrations tested using GraphPad Prism 5, and the EC50 values were determined through either three- or four-parameter nonlinear regression.

For series [3], the system named is CRC2413. Briefly: Viability of primary patient-derived colorectal cancer cell line. It counts as cell-based.
Series [4] has as its system HCT116 xenografts. Briefly: Mouse xenograft and compound treatment. It counts as in vivo. The following applies: NSG mice, 50 mg/kg every other day i.p. As for the experimental part: HCT 116 cells (1×10^6 cells per site) and were implanted subcutaneously into the right flanks of 5-7 weeks old NSG (NOD scid gamma) (Jackson Laboratory, stock no. 005557) mice. When tumours reached a size of 60-100 mm^3 in volume, the animals were randomised to either the treatment or control group. Mice in the treatment group were administered with compound GB1874 at 50 mg/kg every other day via intraperitoneal injection. Simultaneously animals in the control group were administered with the diluent in the absence of compound. Compound GB1874 was prepared by dissolving it in DMSO to a concentration of 60 mg/mL and diluting it in 5% PEG 300, 5% Tween-80 in saline to a final concentration of 3 mg/mL, 5% DMSO. The length and width of tumours were measured by caliper once every 2 days. Tumour volumes were estimated using the following modified ellipsoidal formula: Tumour volume=½(length×width^2). Mice were euthanized when tumours in the control group reaches 2000 mm^3.

The subject of series [5] is Wnt signalling (TOPFlash reporter, STF3A cells). Briefly: Wnt STF3A TOPFlash reporter dose response (constitutive Wnt3A). It counts as cell-based. As for the experimental part:
Wnt STF reporter cells (HEK 293 cells stably transfected with TOPFlash reporter) and STF3A reporter cells (STF cells with constitutive secretion of Wnt3A) were kind gifts from David Virshup (Duke-NUS Graduate Medical School, Singapore). HCT116, DLD-1, and SW480 cell lines were obtained from ATCC. The Hippo pathway TEAD reporter (cat. #60618) and Myc signalling pathway reporter (cat. #60520) cells lines were purchased from BPS Bioscience, Inc.
as §1, §2

For orientation: IC50 means the concentration at which inhibition is half-maximal. The EC50 is the concentration giving half of the maximal effect. A low value points to greater potency.

T1 sequence (P35222 with tags, fused parts or gaps DEL45-45): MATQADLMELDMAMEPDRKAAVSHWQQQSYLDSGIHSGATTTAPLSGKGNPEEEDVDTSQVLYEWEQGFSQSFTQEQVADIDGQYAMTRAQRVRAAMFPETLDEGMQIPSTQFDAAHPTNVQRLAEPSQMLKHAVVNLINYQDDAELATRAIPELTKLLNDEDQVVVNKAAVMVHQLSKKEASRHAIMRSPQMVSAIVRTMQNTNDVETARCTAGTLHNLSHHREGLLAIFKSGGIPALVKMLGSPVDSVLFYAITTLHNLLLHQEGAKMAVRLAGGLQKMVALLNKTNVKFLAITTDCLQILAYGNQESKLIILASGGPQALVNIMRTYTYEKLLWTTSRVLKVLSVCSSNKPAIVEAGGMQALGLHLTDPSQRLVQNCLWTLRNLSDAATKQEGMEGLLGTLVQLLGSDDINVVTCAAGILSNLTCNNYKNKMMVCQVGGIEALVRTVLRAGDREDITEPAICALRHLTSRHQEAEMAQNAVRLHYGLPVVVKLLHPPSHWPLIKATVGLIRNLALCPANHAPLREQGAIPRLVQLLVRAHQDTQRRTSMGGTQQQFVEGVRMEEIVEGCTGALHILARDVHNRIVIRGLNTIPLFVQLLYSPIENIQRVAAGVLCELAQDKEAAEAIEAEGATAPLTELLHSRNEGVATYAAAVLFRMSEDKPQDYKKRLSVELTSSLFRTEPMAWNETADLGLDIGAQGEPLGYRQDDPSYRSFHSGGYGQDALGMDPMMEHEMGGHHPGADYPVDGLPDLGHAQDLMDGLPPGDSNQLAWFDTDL

`CCc1ccc(OCc2nnc(SC3CCCC3=O)n2C(C)c2ccccc2)cc1` (centres unmarked) [GB1874]: the “β-cat-TCF4 interaction (co-IP)” value in series [1] is reported as “reduce the β-cat-TCF4 interaction to the same extent as iCRT3”. For the same compound, the IC50 came to 64 µM in series [2]; 26 µM in series [5] (Table 1, STF3A reporter cells, 24 hr, read-out: IC50 Wnt (STF3A)); 27 µM in series [5] (Table 3, STF3A reporter cell line, read-out: STF3A Inhibition IC50). Moreover, the response in series [3] was half-maximal at 16 µM (EC50). Further, in series [4], the “expression of cyclin D1 and Ki67 in xenograft tumours (IHC)” value is recorded as “reduction in the expression of Wnt target gene, cyclin D1, as well as the proliferation marker, Ki67”. Moreover, the “systemic toxicity in the mice (body weight)” value in series [4] (2 weeks) is on record as “minimal systemic toxicity”. Moreover, the “growth of HCT116 xenografts (tumour volume)” value in series [4] (2 weeks, 50 mg/kg) was “effectively inhibited the growth of HCT116 xenografts in vivo”.
